# From patent US20210283091A1, “DECREASING IMMUNE ACTIVITY THROUGH MODULATION OF POSTCELLULAR SIGNALING FACTORS” (FLAGSHIP PIONEERING INNOVATIONS V, INC., priority 2018, published 2021)
# Legend:
# [1] = test system: Caki-1 renal cell carcinoma cells; test: Viability of Caki-1 renal cell carcinoma cells treated with ferroptosis inducer, with or without Ferrostatin-1; format: cell-based
# [2] = test system: A20 B-cell leukemia cells; test: Viability of A20 cells treated with GPX4 inhibitor, with or without Ferrostatin-1; format: cell-based; details: for viability of A20 cells: various doses, 24 hours treatment
# NFKB [3] = test: NFKB reporter activity in THP1-Dual monocytes co-cultured with treated A20 cells; format: cell-based, human; details: for NFKB signaling in THP1 monocytes: A20 cells treated 24 hours, then co-culture with THP1-Dual cells 24 hours
# Protocol: A20 B-cell leukemia cells were treated with either control (DMSO) or various doses of RSL3, for 24 hours prior to co-culture with THP1-Dual cells for an additional 24 hours. RSL3 was purchased from Selleckchem (Houston, Tex.) and dissolved in DMSO. Subsequently, the THP1 supernatants were assessed for NFKB or IRF reporter activity.
# A20 cells were acquired from ATCC and THP1-Dual cells acquired from InvivoGen (San Diego, Calif.). Both cell types were cultured in 96-well plates for the duration of the assay. 50,000 A20 cells were plated 24 hours prior to dosing with RSL3, with a final DMSO concentration of 0.5%. 24 hours post-treatment, THP1-Dual cells (25,000 cells/well) were added to the A20 cells. 24 hours later, 30 μl of supernatant was mixed with either 200 μl QuantiBlue (InvivoGen, San Diego, Calif.) or 50 μl QuantiLuc and absorbance or luminescence was recorded on a Molecular Devices plate reader.
# A20 lymphoma cells were treated with various doses (e.g. 0.002, 0.005, 0.014, 0.041, 0.123, 0.370, 1.111, 3.333 and 10 μM) of a GPX4 inhibitor (RSL3, ML162 or ML210) in the presence or absence of 1 μM Ferrostatin-1 for 24 hours. ML162 was purchased from Cayman Chemical Company Inc and resuspended in DMSO. ML210 was purchased from Sigma-Aldrich and resuspended in DMSO. A20 lymphoma cells were also treated with DMSO as a negative control. After treatment with DMSO or a GPX4 inhibitor for 24 hours, the A20 lymphoma cells were co-cultured with THP1-Dual cells for an additional 24 hours. Subsequently, the THP1 supernatant was assessed for NFKB reporter activity. A20 cells were acquired from ATCC and THP1-Dual cells were acquired from InvivoGen (San Diego, Calif.). Both cell types were cultured in 96-well plates for the duration of the assay.
# NFKB [4] = test: NFKB reporter activity in THP1-Dual monocytes co-cultured with treated Caki-1 cells; format: cell-based, human
# Protocol: Caki-1 renal cell carcinoma cells were treated with either control (DMSO) or various doses of Erastin, for 24 hours prior to co-culture with THP1-Dual cells for an additional 24 hours. Erastin was purchased from Selleckchem (Houston, Tex.) and dissolved in DMSO. Subsequently, the THP1 supernatants were assessed for NFKB or IRF reporter activity. Caki-1 cells were acquired from ATCC and THP1-Dual cells acquired from InvivoGen (San Diego, Calif.). Both cell types were cultured in 96-well plates for the duration of the assay. 7.500 Caki-1 cells were plated 24 hours prior to dosing with Erastin, with a final DMSO concentration of 0.5%. 24 hours post-treatment, THP1-Dual cells (25,000 cells/well) were added to the Caki-1 cells. 24 hours later, 30 μl of supernatant was mixed with either 200 μl QuantiBlue (InvivoGen) or 50 μl QuantiLuc and absorbance or luminescence was recorded on a Molecular Devices plate reader. Caki-1 renal cell carcinoma cells were treated with either control (DMSO) or various doses of RSL3, for 24 hours prior to co-culture with THP1-Dual cells for an additional 24 hours. RSL3 was purchased from Selleckchem and dissolved in DMSO. Subsequently, the THP1 supernatants were assessed for NFKB or IRF reporter activity. Caki-1 cells were acquired from ATCC and THP1-Dual cells acquired from InvivoGen (San Diego, Calif.). Both cell types were cultured in 96-well plates for the duration of the assay. 7.500 Caki-1 cells were plated 24 hours prior to dosing with […], with a final DMSO concentration of 0.5%. 24 hours post-treatment, THP1-Dual cells (25,000 cells/well) were added to the Caki-1 cells. 24 hours later, 30 μl of supernatant was mixed with either 200 μl QuantiBlue (InvivoGen, San Diego, Calif.) or 50 μl QuantiFuc and absorbance or luminescence was recorded on a Molecular Devices plate reader. […] Subsequently, the THP1 supernatant was assessed for NFKB reporter activity. […]
# C57/B6 mice = test: Dextran sodium sulfate colitis in mice; format: in vivo; details: 10 mg/kg, i.p., 3-4% dextran sodium sulfate 5 days, compared to vehicle
# Protocol: C57/B6 mice are treated with vehicle or Ferrostatin (10 mg/kg, i.p) before the induction of colitis by administration of 3-4% dextran sodium sulfate in the drinking water for 5 days. An anti-inflammatory effect of ferrostatin compared to vehicle is confirmed by […], decreased diarrhea, and decreased weight loss. In addition, inhibition of neutrophil recruitment (innate immune response) by ferrostatin in confirmed by decreased myeloperoxidase activity in the colon (compared to vehicle).
# [5] = test system: HT1080 fibrosarcoma cells; test: Viability of HT1080 fibrosarcoma cells treated with ferroptosis inducer, with or without ferroptosis inhibitor or siRNA; format: cell-based; details: various doses, 24 hours treatment
# NFKB [6] = test: NFKB reporter activity in THP1-Dual monocytes co-cultured with treated HT1080 cells; format: cell-based, human; details: HT1080 cells treated 24 hours, then co-culture with THP1-Dual cells 24 hours
# Protocol: HT1080 fibrosarcoma cells were treated with either control (DMSO) or various doses of Erastin, piperazine erastin (PE), or imidazole ketoerastin (IKE) for 24 hours prior to co-culture with THP1-Dual cells for an additional 24 hours. Erastin was purchased from Selleckchem (Houston, Tex.) and dissolved in DMSO. Subsequently, the THP1 supernatants were assessed for nuclear factor kappa-light-chain-enhancer of activated B cells (NFKB) or interferon regulatory factor (IRF) reporter activity.
# HT1080 cells were acquired from ATCC and THP1-Dual cells were acquired from InvivoGen (San Diego, Calif.). […] 24 hours later, 30 μl of supernatant was mixed with either 200 μl QuantiBlue (InvivoGen, San Diego, Calif.) (for NFKB reporter activity) or 50 μl QuantiLuc (for IRF reporter activity) and absorbance or luminescence was recorded on a Molecular Devices plate reader.
# HT1080 fibrosarcoma cells were treated with various doses of Erastin (e.g. 0.8, 0.16, 0.31, 0.63, 1.25, 2.5, 5, 10 or 20 μM) alone or in combination with a ferroptosis inhibitor (1 μM Ferrostatin-1, 1 μM Liproxstatin-1, 100 μM Trolox, 25 μM β-Mercaptoethanol or 100 μM Deferoxamine) for 24 hours prior to co-culture with THP1-Dual cells for an additional 24 hours. […] Subsequently, the THP1 supernatant was assessed for NFKB activity. […]
smiles,measurement,setting,value
CCOC(=O)c1ccc(NC2CCCCC2)c(N)c1 [Ferrostatin-1],effect on viability of Caki-1 renal carcinoma cells decreased by GPX4 inhibitor (RSL3 or ML162),"[1]; 1 μM Ferrostatin, 24 hours",attenuated
same,"effect on viability of A20 lymphoma cells decreased by GPX4 inhibitor (RSL3, ML162 or ML210)","[2]; 1 μM Ferrostatin-1, 24 hours",attenuated
same,effect on NFKB activity in THP1 cells increased by GPX4 inhibitor-treated A20 lymphoma cells,NFKB [3]; 1 μM Ferrostatin-1,attenuated
same,effect on NFKB activity in THP1 cells increased by RSL3- or ML162-treated Caki-1 cells,NFKB [4]; 1 μM Ferrostatin,attenuated
same,colon length,C57/B6 mice,decreased
same,diarrhea,C57/B6 mice,decreased
same,myeloperoxidase activity in the colon,C57/B6 mice,decreased
same,weight loss,C57/B6 mice,decreased
"CC(C)Oc1ccc(C(=O)Cn2ccnc2)cc1-n1c(CN2CCN(C(=O)COc3ccc(Cl)cc3)CC2)nc2ccccc2c1=O [IKE, imidazole ketoerastin]",viability of HT1080 cells,[5],negatively affected the viability
same,NFKB signaling in THP1 monocytes,NFKB [6],elicited NFKB signaling
COc1ccc(N(C(=O)CCl)C(C(=O)NCCc2ccccc2)c2cccs2)cc1Cl (stereo not drawn) [ML162],viability of Caki-1 cells,"[1]; various doses, 24 hours treatment",decreased viability of the cells in a dose dependent manner
same,viability of A20 cells,[2],decreased viability of the cells in a dose dependent manner
same,NFKB signaling in THP1 monocytes,NFKB [3],increased NFKB activity in THP1 cells in a dose dependent manner
same,NFKB signaling in THP1 monocytes,"NFKB [4]; Caki-1 cells treated 24 hours, then co-culture with THP1-Dual cells 24 hours",increased NFKB activity in THP1 cells in a dose dependent manner
Cc1onc(C(=O)N2CCN(C(c3ccc(Cl)cc3)c3ccc(Cl)cc3)CC2)c1[N+](=O)[O-] [ML210],viability of A20 cells,[2],decreased viability of the cells in a dose dependent manner
same,NFKB signaling in THP1 monocytes,NFKB [3],increased NFKB activity in THP1 cells in a dose dependent manner
"CC(C)Oc1ccc(CN2CCNCC2)cc1-n1c(CN2CCN(C(=O)COc3ccc(Cl)cc3)CC2)nc2ccccc2c1=O [PE, piperazine erastin]",viability of HT1080 cells,[5],negatively affected the viability
same,NFKB signaling in THP1 monocytes,NFKB [6],elicited NFKB signaling
